Results: US9371568B2, “Markers associated with human double minute 2 inhibitors” (Novartis AG, priority 2012, dated 2016)

Assays:
[1] = system: C3A cells; experiment: Western blot of p53 pathway proteins, C3A sensitive cells; assay type: cell-based; details: 4 hours
Procedure: (§1) That the biomarkers in Table 2/FIG. 3 are reflective of a functional p53 pathway in MDM2i sensitive cells is verified in FIG. 4. […]. Whole cell lysates were prepared using a cell lysis buffer containing 50 mM Tris-HCl pH 7.5, 120 mM NaCl, 1 mM EDTA, 6 mM EGTA pH 8.5, 1% NP-40, 20 mM NaF, 1 mM PMSF and 0.5 mM Na-Vanadat, proteins were separated on NuPAGE 4-12% Bis-Tris Gel (Invitrogen # NP0322BOX, Lucerne; Switzerland), transferred onto Nitrocellulose Protran® BA 85 membranes (Whatman #10 401 261: Piscataway, N.J., USA) at 1.5 mA/cm^2 membrane for 2 h using a semi-dry blotting system, and immunoblotted with either an anti-phospho-p53 (Ser^15) (1/1000; Cell Signaling Technology #9284: Beverly, Mass., USA) rabbit polyclonal antibody, or an anti-p53 (Ab-6) (Pantropic, clone DO-1,) (1/1000; Calbiochem # OP43 San Diego, Calif., USA), an anti-MDM2 (Ab-1, clone IF2) (1/1000; Calbiochem # OP46), an anti-p21^WAF1(Ab-1, clone EA10) (1/500; Calbiochem # OP64: San Diego, Calif., USA) or an anti-α-Tubulin (Sigma # T5168: St. Louis, Mo., USA) mouse monoclonal antibodies, as indicated. […].

[2] = system: COLO 792 cells; experiment: Western blot of p53 pathway proteins, COLO 792 insensitive cells; assay type: cell-based; details: increasing concentrations, 4 hours
Procedure: as §1

[3] = system: SJSA-1, HCT116 p53wt/wt, SAOS2 and HCT116 p53-/- cells; experiment: Cell proliferation inhibition assay (YOPRO), p53 wild-type and p53 mutant cell lines; assay type: cell-based; details: 72 hours, p53 wild-type vs p53 mutant cell lines
Procedure: Lucern, Switzerland). Briefly, cells are plated in 96-well plates overnight at 37° C. and are treated with increasing concentrations of MDM2i(1) or MDM2i(2) for 72 hours. Cell concentration in each well is then determined using the DNA-interacting fluorescent dye YOPRO according to the manufacturer's instructions and the fluorescent signal is measured using a Gemini-EM standard plate reader (Molecular Devices: Sunnyvale, Calif., USA).

[4] = system: p21(CDKN1A); experiment: p21(CDKN1A) protein levels in SJSA-1 tumors (immunohistochemistry); assay type: in vivo, mice; details: SJSA-1 xenograft
Procedure: SJSA-1 xenograft tumors were collected and a 3-4 mm slice out of the middle of the tumor was removed, transferred into pre-labelled histo-cassettes and immersion-fixed in neutral buffered formalin (NBF) 10% (v/v) (pH 6.8-7.2) (J. T. Baker, Winter Garden, Fla., USA), pre-cooled at 4° C. Tumors were then fixed at room temperature for 24 hours, followed by processing in the TPC 15Duo (Tissue Processing Center, Medite) for paraffinization. Subsequently, the tumor slices were embedded in paraffin and from each paraffin block several 3 μm thick sections were cut on a rotary microtome (Mikrom International AG, Switzerland), spread in a 48° C. water-bath, mounted on glass slides (SuperFrost Plus, Thermo Scientific: Waltham Mass., USA), and dried in an oven either at 37° C. overnight or at 60° C. for 30 min. Dry tissue section were processed for immunohistochemistry (IHC) staining. p21(CDKN1A) immunohistochemistry has been performed using the mouse monoclonal antibody clone SX118 from Dako (Cat. No. M7202 Dako: Carpenteria Calif., USA) at a dilution of 1:50. Immunohistochemistry has been performed on a Ventana Discovery XT automated immunostainer using the N-Histofine Mousestain Kit (Nichirei Bioscience Inc, Japan) in combination with the DABMap Kit chromogen system, omitting the SA-HRP solution (Ventana/Roche Diagnostics GmbH, Mannheim, Germany). […]

[5] = system: SJSA-1 osteosarcoma cells; experiment: SJSA-1 xenograft tumor growth in nude mice; assay type: in vivo; details: 10-day treatment
Procedure: To further validate the predictive biomarkers disclosed in FIG. 3, in vivo human xenograft models either from human primary samples or from cell lines were directly injected and grown in tumors subcutaneously in mice and then assessed for MDM2i sensitivity. All the animals were allowed to adapt for 4 days and housed in a pathogen-controlled environment (5 mice/Type III cage) with access to food and water ad libitum. Animals were identified with transponders. Studies were performed according to procedures covered by permit number 1975 issued by the Kantonales Veterinäramt Basel-Stadt and strictly adhered to the Eidgenössisches Tierschutzgesetz and the Eidgenössische Tierschutzverordnung. […] Tumor volumes (TVol), determined from caliper measurements (using the formula I×w×h×τ/6) were measured three times per week. Tumor response was quantified by the change in tumor volume (endpoint minus starting value in mm^3) as the T/C, i.e.
[formula] In the case of a tumor regression, the tumor response was quantified by the percentage of regression of the starting TVol, i.e.
[formula] The body-weight (BW) of the mice was measured three times per week allowing calculation at any particular time-point relative to the day of initiation of treatment (day 0) of both the percentage change in BW (Δ % BW). […]

[6] = system: p21(CDKN1A); experiment: p21(CDKN1A) mRNA levels in SJSA-1 tumors (qRT-PCR); assay type: in vivo, mice; details: SJSA-1 xenograft, 25-100 mg/kg q24h
Procedure: Briefly, total RNA was purified from cell pellets using the QIAshredder® (79654, Qiagen: Valencia Calif., USA) and RNeasy Mini Kit® (74106, Qiagen: Valencia Calif., USA) according to the manufacturer's instructions, with the exception that no DNA digestion was performed. Total RNA was eluted with 50 μL of RNase-free water. Total RNA was quantitated using the spectrophotometer ND-1000 Nanodrop® (Wilmington Del., USA). The qRT-PCR (Quantitative Reverse Transcriptase Polymerase Chain Reaction) was set up in triplicate per sample using the One-Step RT qPCR Master Mix Plus (RT-QPRT-032×, Eurogentec: Seraing, Belgium), with either control primers and primers for human p21(CDKN1A) (Hs00355782_m1, Applied Biosystems: Carlsbad Calif., USA) or mouse p21(CDKN1A) (Mm00432448_m1, Applied Biosystems: Carlsbad Calif., USA), namely TaqMan Gene Expression kit assays (20× probe dye FAM™ (or VIC)-TAMRA (or MGB); Applied Biosystems: Carlsbad Calif., USA). […] The number of cycles (CT) was determined, 2^−CT values were calculated, and the value normalized by dividing with the 2^−CT value obtained from the Gapdh control. Fold increase over control (i.e. DMSO- or vehicle-treated animals) was calculated and plotted in the bar graph.

[7] = system: human and mouse normal fibroblasts; details: cited from earlier work
[8] = system: SJSA-1 osteosarcoma line; details: SJSA-1, amplified MDM2 gene; cited from earlier work

| Structure (SMILES) | phospho-p53 ([1]; C3A cells, increasing concentrations) | expression of p53 target genes p21(CDKN1A) and MDM2 ([1]; C3A sensitive cells) | phospho-p53 [2] | tumor cell proliferation [3] | p21(CDKN1A) protein levels in tumors [4] | T/C (tumor growth inhibition) ([5]; 25 mg/kg q24h) [%] | T/C (tumor growth inhibition) ([5]; 50 mg/kg q24h) [%] | p21(CDKN1A) mRNA levels in tumors [6] | proliferation of normal fibroblasts [7] | viability of normal fibroblasts [7] | apoptosis [8] | proliferation [8] |
| --- | --- | --- | --- | --- | --- | --- | --- | --- | --- | --- | --- | --- |
| COc1cc2c(cc1OC(C)C)[C@H](c1ccc(Cl)cc1)N(c1ccc(N(C)C[C@H]3CC[C@H](N4CCN(C)C(=O)C4)CC3)cc1)C(=O)C2 [MDM2i(1)] | no significant increase | strong de novo expression | no significant increase | hampering tumor cell proliferation in a p53-dependent manner | significant dose-dependent induction | 50 | 3 | significant dose-dependent induction | – | – | – | – |
| COc1cc2c(cc1OC(C)C)[C@H](c1ccc(Cl)cc1)N(c1ccc(N(C)C[C@H]3CC[C@H](N4CCNC(=O)C4)CC3)cc1)C(=O)C2 [MDM2i(2)] | – | – | – | hampering tumor cell proliferation in a p53-dependent manner | – | – | – | – | – | – | – | – |
| COc1ccc(C2=N[C@@H](c3ccc(Cl)cc3)[C@@H](c3ccc(Cl)cc3)N2C(=O)N2CCNC(=O)C2)c(OC(C)C)c1 [Nutlin-3] | – | – | – | – | – | – | – | – | proliferation of the cells was slowed | retained their viability | increased apoptosis | reduced proliferation |
